Laboratory results reported in patent US20060100235A1, “Pharmaceutical use of substituted 1,2,4-triazoles” (Novo Nordisk A/S, priority 2003, published 2006).

Biological target: T1, h-11βHSD1 (Homo sapiens, UniProt P28845)
T1 construct: made in house
Assay: 11βHSD1 enzyme assay (scintillation proximity assay)
Assay type: biochemical
Conditions: extract of yeast transformed with h-11βHSD1; 120 nM 3H-cortisone, 4 mM β-NADPH; 60 min at 30° C.
Experimental: Pharmacological Methods 11βHSD1 enzyme assay Materials
^3H-cortisone and anti-rabbit Ig coated scintillation proximity assay (SPA) beads were purchased from Amersham Pharmacia Biotech, β-NADPH was from Sigma and rabbit anticortisol antibodies were from Fitzgerald. An extract of yeast transformed with h-11βHSD1 (Hult et al., FEBS Lett, 441, 25 (1998)) was used as the source of enzyme. The test compounds were dissolved in DMSO (10 mM). All dilutions were performed in a buffer containing 50 mM TRIS-HCl (Sigma Chemical Co), 4 mM EDTA (Sigma Chemical Co), 0.1% BSA (Sigma Chemical Co), 0.01% Tween-20 (Sigma Chemical Co) and 0.005% bacitracin (Novo Nordisk A/S), pH=7.4. Optiplate 96 wells plates were supplied by Packard. The amount of ^3H-cortisol bound to the SPA beads was measured on TopCount NXT, Packard.
h-11βHSD1, 120 nM ^3H-cortisone, 4 mM β-NADPH, antibody (1:200), serial dilutions of test compound and SPA particles (2 mg/well) were added to the wells. The reaction was initiated by mixing the different components and was allowed to proceed under shaking for 60 min at 30° C. […] Data was analysed using GraphPad Prism software.

T1 sequence (P28845 whole entry): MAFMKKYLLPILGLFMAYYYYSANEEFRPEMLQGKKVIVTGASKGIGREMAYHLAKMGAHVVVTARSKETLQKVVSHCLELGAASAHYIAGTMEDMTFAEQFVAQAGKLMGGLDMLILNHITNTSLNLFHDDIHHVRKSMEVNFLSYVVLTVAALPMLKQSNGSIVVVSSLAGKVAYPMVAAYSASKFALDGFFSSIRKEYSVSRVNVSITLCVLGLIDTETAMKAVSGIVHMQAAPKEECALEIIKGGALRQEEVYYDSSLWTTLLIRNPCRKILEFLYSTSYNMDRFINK

IC50	SMILES
190 nM	Cn1c(SCC(=O)c2ccccc2)nnc1C1CCCCC1 [Comp B, 2-(5-Cyclohexyl-4-methyl-4H-[1,2,4]triazol-3-ylsulfanyl)-1-phenyl-ethanone]
160 nM	CCn1c(SCC(=O)N2CCCc3ccccc32)nnc1-c1ccccc1Br [Comp A, 2-[5-(2-Bromo-phenyl)-4-ethyl-4H-[1,2,4]triazol-3-ylsulfanyl]-1-(3,4-dihydro-2H-quinolin-1-yl)-ethanone]
